In general, IC50 refers to the concentration needed to halve the response being measured. Read a low IC50 as inhibition by little substance.

This assay has as its system U87MG cells. As to the kind of experiment: Cellular assay, inhibition of 2-HG production in U87MG cells. The format is cell-based. The note with it: Homo sapiens, U-87 MG, 48 h. The procedure: Cells (HT1080 or U87MG) are grown in T125 flasks in DMEM containing 10% FBS, 1× penicillin/streptomycin and 500 ug/mL G418 (present in U87MG cells only). They are harvested by trypsin and seeded into 96 well white bottom plates at a density of 5000 cell/well in 100 ul/well in DMEM with 10% FBS. […] Cells are incubated overnight at 37° C. in 5% CO2. The next day test compounds are made up at 2× the final concentration and 100 ul are added to each cell well. The final concentration of DMSO is 0.2% and the DMSO control wells are plated in row G. The plates are then placed in the incubator for 48 hours. […] The cell plate is placed back in the incubator for another 24 hours. At 72 hours post compound addition, 10 mL/plate of Promega Cell Titer Glo reagent is thawed and mixed. The cell plate is removed from the incubator and allowed to equilibrate to room temperature. Then 100 ul of Promega Cell Titer Glo reagent is added to each well of media. The cell plate is then placed on an orbital shaker for 10 minutes and then allowed to sit at room temperature for 20 minutes. The plate is then read for luminescence with an integration time of 500 ms.

`CN1CC(=O)N(c2cc(C#N)ccn2)[C@H](C(=O)N(c2cc(F)cc(F)c2)[C@H](C(=O)NC2CC(F)(F)C2)c2ccccc2Cl)C1` [Compound 101, (S)—N—((S)-1-(2-chlorophenyl)-2-((3,3-difluorocyclobutyl)amino)-2-oxoethyl)-1-(4-cyanopyridin-2-yl)-N-(3,5-difluorophenyl)-4-methyl-6-oxopiperazine-2-carboxamide] yielded an IC50 of less than 0.1 µM.

Molecule `CS(=O)(=O)c1cccc(N(C(=O)[C@@H]2CCC(=O)N2c2nccc(C#N)n2)[C@H](C(=O)NC2CCC(F)(F)CC2)c2ccccc2Cl)c1` [Compound 103, (S)—N—((S)-1-(2C)-2-((4,4-difluorocyclohexyl)amino)-2-oxoethyl)-1-(4-cyanopyrimidin-2-yl)-N-(3-(methylsulfonyl)phenyl)-5-oxopyrrolidine-2-carboxamide] had an IC50 of 0.1 to 0.5 µM.

With `CCOC(=O)CN1CC(=O)N(c2cc(C#N)ccn2)[C@H](C(=O)N(c2cc(F)cc(F)c2)[C@H](C(=O)NC2CC(F)(F)C2)c2ccccc2Cl)C1` [Compound 104], the IC50 was less than 0.1 µM.

`N#Cc1ccnc(N2C(=O)CN(C3CC3)C[C@H]2C(=O)N(c2cc(F)cc(F)c2)[C@H](C(=O)NC2CC(F)(F)C2)c2ccccc2Cl)c1` [Compound 106, (S)—N—((S)-1-(2-chlorophenyl)-2-((3,3-difluorocyclobutyl)amino)-2-oxoethyl)-1-(4-cyanopyridin-2-yl)-4-cyclopropyl-N-(3,5-difluorophenyl)-6-oxopiperazine-2-carboxamide] registered an IC50 of less than 0.1 µM.

`N#Cc1ccnc(N2C(=O)CN(CCO)C[C@H]2C(=O)N(c2cc(F)cc(F)c2)[C@H](C(=O)NC2CC(F)(F)C2)c2ccccc2Cl)c1` [Compound 107, (S)—N—((S)-1-(2-chlorophenyl)-2-((3,3-difluorocyclobutyl)amino)-2-oxoethyl)-1-(4-cyanopyridin-2-yl)-N-(3,5-difluorophenyl)-4-(2-hydroxyethyl)-6-oxopiperazine-2-carboxamide] had an IC50 of less than 0.1 µM.

`CCOC(=O)CN1C[C@@H](C(=O)N(c2cccc(F)c2)C(C(=O)NC2CC(F)(F)C2)c2ccccc2Cl)N(c2nccc(C#N)n2)C1=O` (stereo partly drawn) [Compound 111, Ethyl 2-((4S)-4-((1-(2-chlorophenyl)-2-((3,3-difluorocyclobutyl)amino)-2-oxoethyl)(3-fluorophenyl)carbamoyl)-3-(4-cyanopyrimidin-2-yl)-2-oxoimidazolidin-1-yl)acetate]: the IC50 was less than 0.1 µM.

With `N#Cc1ccnc(N2C(=O)N(CCO)C[C@H]2C(=O)N(c2cccc(F)c2)C(C(=O)NC2CC(F)(F)C2)c2ccccc2Cl)c1` (stereo partly drawn) [Compound 112, (4S)—N-(1-(2-Chlorophenyl)-2-(3,3-difluorocyclobutyl-amino)-2-oxoethyl)-3-(4-cyanopyridin-2-yl)-N-(3-fluorophenyl)-1-(2-hydroxyeth-yl)-2-oxoimidazolidine-4-carboxamide], the IC50 is less than 0.1 µM.

Consider `N#Cc1ccnc(N2C(=O)[C@H](O)C[C@H]2C(=O)N(c2cccc(F)c2)[C@H](C(=O)NC2CC(F)(F)C2)c2ccccc2Cl)c1` [Compound 113, (2S,4R)—N—((S)-1-(2-Chlorophenyl)-2-(3,3-difluorocyclobutylamino)-2-oxoethyl)-1-(4-cyano-pyridin-2-yl)-N-(3-fluorophenyl)-4-hydroxy-5-oxopyrrolidine-2-carboxamide], for which the IC50 was less than 0.1 µM.

For `N#Cc1ccnc(N2C(=O)[C@H](O)C[C@H]2C(=O)N(c2cc(F)cc(F)c2)[C@@H](C(=O)NC2CC(F)(F)C2)c2ccccc2Cl)c1` [Compound 114, (2S,4R)—N—((R)-1-(2-Chlorophenyl)-2-((3,3-difluorocyclobutyl)amino)-2-oxoethyl)-1-(4-cyanopyridin-2-yl)-N-(3,5-difluorophenyl)-4-hydroxy-5-oxopyrrolidine-2-carboxamide], the IC50 is less than 0.1 µM.

Turning to `N#Cc1ccnc(N2C(=O)[C@H](O)C[C@H]2C(=O)N(c2cc(F)cc(F)c2)[C@H](C(=O)NC2CC(F)(F)C2)c2ccccc2Cl)c1` [Compound 115, (2S,4R)—N—((S)-1-(2-Chlorophenyl)-2-((3,3-difluorocyclobutyl)amino)-2-oxoethyl)-1-(4-cyanopyridin-2-yl)-N-(3,5-difluorophenyl)-4-hydroxy-5-oxopyrrolidine-2-carboxamide], the half-maximal inhibitory concentration (IC50) was less than 0.1 µM.

The molecule `N#Cc1ccnc(N2C(=O)[C@H](O)C[C@H]2C(=O)N(c2cc(F)cc(F)c2)[C@@H](C(=O)NC2CC(F)(F)C2)c2ccccc2Cl)n1` [Compound 116, (2S,4R)—N—((R)-1-(2-Chlorophenyl)-2-((3,3-difluorocyclobutyl)amino)-2-oxoethyl)-1-(4-cyanopyrimidin-2-yl)-N-(3,5-difluorophenyl)-4-hydroxy-5-oxopyrrolidine-2-carboxamide] registered an IC50 of 0.1 to 0.5 µM.

For the molecule `N#Cc1ccnc(N2C(=O)[C@H](O)C[C@H]2C(=O)N(c2cc(F)cc(F)c2)[C@H](C(=O)NC2CC(F)(F)C2)c2ccccc2Cl)n1` [Compound 117, (2S,4R)—N—((S)-1-(2-Chlorophenyl)-2-((3,3-difluorocyclobutyl)amino)-2-oxoethyl)-1-(4-cyanopyrimidin-2-yl)-N-(3,5-difluorophenyl)-4-hydroxy-5-oxopyrrolidine-2-carboxamide], the IC50 is less than 0.1 µM.

Consider `N#Cc1ccnc(N2C(=O)[C@@H](O)C[C@H]2C(=O)N(c2cccc(F)c2)[C@H](C(=O)NC2CC(F)(F)C2)c2ccccc2Cl)c1` [Compound 118, (2S,4S)—N—((S)-1-(2-Chlorophenyl)-2-(3,3-difluorocyclobutylamino)-2-oxoethyl)-1-(4-cyano-pyridin-2-yl)-N-(3-fluorophenyl)-4-hydroxy-5-oxopyrrolidine-2-carboxamide], for which the IC50 is less than 0.1 µM.

For the molecule `N#Cc1ccnc(N2C(=O)[C@@H](O)C[C@H]2C(=O)N(c2cccc(F)c2)[C@H](C(=O)NC2CC(F)(F)C2)c2ccccc2Cl)n1` [Compound 119, (2S,4S)—N—((S)-1-(2-Chlorophenyl)-2-(3,3-difluorocyclobutylamino)-2-oxoethyl)-1-(4-cyanopyrimidin-2-yl)-N-(3-fluorophenyl)-4-hydroxy-5-oxopyrrolidine-2-carboxamide], the IC50 fell in the range of 0.1 to 0.5 µM.

`N#Cc1ccnc(N2C(=O)[C@H](O)C[C@H]2C(=O)N(c2cccc(F)c2)[C@H](C(=O)NC2CC(F)(F)C2)c2ccccc2Cl)n1` [Compound 120, (2S,4R)—N—((S)-1-(2-Chlorophenyl)-2-((3,3-difluorocyclobutyl)amino)-2-oxoethyl)-1-(4-cyanopyrimidin-2-yl)-N-(3-fluorophenyl)-4-hydroxy-5-oxopyrrolidine-2-carboxamide] yielded an IC50 of 0.1 to 0.5 µM.

`N#Cc1ccnc(N2C(=O)[C@H](O)C[C@H]2C(=O)N(c2cccc(F)c2)[C@H](C(=O)NC2CCC(F)(F)CC2)c2ccccc2Cl)c1` [Compound 121, (2S,4R)—N—((S)-1-(2-Chlorophenyl)-2-((4,4-difluorocyclohexyl)amino)-2-oxoethyl)-1-(4-cyanopyridin-2-yl)-N-(3-fluorophenyl)-4-hydroxy-5-oxopyrrolidine-2-carboxamide]: the IC50 was less than 0.1 µM.

As for `N#Cc1ccnc(N2C(=O)[C@H](O)C[C@H]2C(=O)N(c2cccc(F)c2)[C@@H](C(=O)NC2CCC(F)(F)CC2)c2ccccc2Cl)n1` [Compound 122, (2S,4R)—N—((R)-1-(2-Chlorophenyl)-2-((4,4-difluorocyclohexyl)amino)-2-oxoethyl)-1-(4-cyanopyrimidin-2-yl)-N-(3-fluorophenyl)-4-hydroxy-5-oxopyrrolidine-2-carboxamide], the IC50 fell in the range of 0.1 to 0.5 µM.

`N#Cc1ccnc(N2C(=O)[C@H](O)C[C@H]2C(=O)N(c2cccc(F)c2)[C@H](C(=O)NC2CCC(F)(F)CC2)c2ccccc2Cl)n1` [Compound 123, (2S,4R)—N—((S)-1-(2-Chlorophenyl)-2-((4,4-difluorocyclohexyl)amino)-2-oxoethyl)-1-(4-cyanopyrimidin-2-yl)-N-(3-fluorophenyl)-4-hydroxy-5-oxopyrrolidine-2-carboxamide] returned a concentration for half-maximal inhibition (IC50) of less than 0.1 µM.

`N#Cc1ccnc(N2C(=O)[C@H](O)C[C@H]2C(=O)N(c2cc(F)cc(F)c2)[C@@H](C(=O)NC2CCC(F)(F)CC2)c2ccccc2Cl)c1` [Compound 124, (2S,4R)—N—((R)-1-(2-Chlorophenyl)-2-(4,4-difluorocyclohexylamino)-2-oxoethyl)-1-(4-cyanopyridin-2-yl)-N-(3,5-difluorophenyl)-4-hydroxy-5-oxopyrrolidine-2-carboxamide] gave a 50% inhibitory concentration (IC50) of less than 0.1 µM.

Consider `N#Cc1ccnc(N2C(=O)[C@H](O)C[C@H]2C(=O)N(c2cc(F)cc(F)c2)[C@H](C(=O)NC2CCC(F)(F)CC2)c2ccccc2Cl)c1` [Compound 125, (2S,4R)—N—((S)-1-(2-Chlorophenyl)-2-(4,4-difluorocyclohexylamino)-2-oxoethyl)-1-(4-cyanopyridin-2-yl)-N-(3,5-difluorophenyl)-4-hydroxy-5-oxopyrrolidine-2-carboxamide], for which the IC50 is less than 0.1 µM.

`N#Cc1ccnc(N2C(=O)[C@H](O)C[C@H]2C(=O)N(c2cc(F)cc(F)c2)[C@@H](C(=O)NC2CCC(F)(F)CC2)c2ccccc2Cl)n1` [Compound 126, (2S,4R)—N—((R)-1-(2-Chlorophenyl)-2-(4,4-difluorocyclohexylamino)-2-oxoethyl)-1-(4-cyanopyrimidin-2-yl)-N-(3,5-difluorophenyl)-4-hydroxy-5-oxopyrrolidine-2-carboxamide] returned an IC50 of 0.1 to 0.5 µM.

For the origin of these results see US10689414B2 (Agios Pharmaceuticals, Inc., priority 2013, dated 2020).
